Legend:
PC-3 cells [1] = test: Proliferation assay, adherent monolayer, alamarBlue; format: cell-based, human; conditions: adherent monolayers
Protocol: PC-3 cells were incubated with compounds for 5 days at 37 °C/5% CO2, stained with alamarBlue® and fluorescence was determined (544 nm/590 nm). Data were analyzed as described above.

PC-3 cells [2] = test: Clonogenic assay in soft agar (anchorage-independent growth); format: cell-based, human; conditions: alamarBlue, read-out: Colony formation EC50 PC-3
Protocol: Clonogenic assays were performed using agarose-containing media. Cells were incubated at 37 °C and 5% CO2 for 14 days. alamarBlue® was used to detect colonies of viable cells (530 nm/590 nm). Data analysis was performed as described above.

In the case of `CN(c1ncccc1CNc1nc(Nc2ccc3c(c2)CC(=O)N3)ncc1C(F)(F)F)S(C)(=O)=O` [PF-562,271, reference compound], the EC50 (PC-3 cells [1]) is reported as 1650 nM and the EC50 (PC-3 cells [2]) is reported as 42 nM.
